Measurements as given in patent US10647680B2, “Urea compound, preparation method therefor and medical use thereof” (Ancureall Pharmaceutical (Shanghai) Co., Ltd., priority 2016, dated 2020).
“And” between values parts separate entries of the source, which are not always exact repeats. Equal entries are not always repeated.

Key:
Type in all cases: in vitro ADME
[1] = system: rat plasma protein; assay: Binding rate to plasma protein of rats (dialysis method)
Description: The binding rate of compound 77 of the present invention to plasma protein at a rat plasma concentration of 2 uM was evaluated by dialysis method.
Procedure: The DMSO stock solution of compound 77 (10 mM) or the positive control propranolol (USP) was added to 500 uL of blank plasma. The final concentration of test substance in the plasma was 2 uM, and the final concentration of the positive control was 1 uM, in triplicate. 300 uL of prepared plasma samples was added to the plasma chamber, and 500 uL of dialysis buffer was added to the buffer chamber (phosphate buffer solution PBS contained 100 mM sodium phosphate and 150 mM sodium chloride, PH 7.2), sealed, and incubated for 4 h while shaking at 100 rpm, 37° C. After incubation, 50 uL sample was taken from the plasma chamber and buffer chamber, and 50 uL of PBS was added to plasma chamber samples, and 50 uL of blank plasma was added to the buffer chamber samples. Immediately, 3-fold methanol solution containing internal standard was added, to precipitate plasma protein. After centrifugation, the supernatant was taken for LC/MS/MS analysis. The plasma protein binding rate was calculated according to the following formula: % free state=(peak area ratio in the buffer chamber/the peak area ratio in the plasma chamber)×%, % binding state=100%−% free state.

[2] = biological target: T1, CYP1A2 (Homo sapiens, UniProt P05177); assay: P450 enzyme inhibition, CYP1A2; settings: human liver microsomes
T1 construct: human liver microsomes (BD Gentest) (0.5 mg/mL); tissue BD Gentest; host or cells: human liver microsomes
T1 sequence (P05177 1-516): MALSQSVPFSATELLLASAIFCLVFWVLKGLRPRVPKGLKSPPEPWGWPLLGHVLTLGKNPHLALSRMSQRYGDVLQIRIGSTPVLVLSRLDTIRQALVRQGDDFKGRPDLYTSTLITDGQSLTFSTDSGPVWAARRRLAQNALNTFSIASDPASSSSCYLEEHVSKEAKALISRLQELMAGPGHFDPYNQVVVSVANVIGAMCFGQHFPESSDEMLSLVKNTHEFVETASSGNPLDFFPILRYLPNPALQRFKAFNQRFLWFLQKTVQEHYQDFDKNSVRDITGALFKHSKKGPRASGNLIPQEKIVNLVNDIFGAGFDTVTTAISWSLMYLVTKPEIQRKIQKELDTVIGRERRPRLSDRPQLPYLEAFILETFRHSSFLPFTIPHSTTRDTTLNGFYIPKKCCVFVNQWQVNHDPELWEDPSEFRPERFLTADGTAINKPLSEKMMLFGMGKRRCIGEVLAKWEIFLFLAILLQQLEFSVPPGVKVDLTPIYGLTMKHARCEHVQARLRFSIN
Description: (§1) Eight cytochrome p450 enzyme inhibition reactions of human liver microsomes were performed using compound 77 of the present invention as a representative example.
(§2) The main reaction systems and processes: in 37° C. water bath, the test compounds (7 concentrations, 0, 0.25, 0.5, 5, 10, 25, and 50 uM; the final methanol concentration was 1% in the system), human liver microsomes (BD Gentest) (0.5 mg/mL) and reducing coenzyme II (Roche 10621706001) (1 mg/mL) and the corresponding cytochrome p450 enzyme probe substrate were co-incubated for 5 to 20 minutes. Among them, (1) the probe substrate for CYP1A2 was Phenacetin ([…]) (Sigma), and the selective inhibitor alpha-naphthoflavone (2 uM) (Sigma) was for parallel detection as positive control, and they were incubated for 20 minutes. (2) The probe substrate for CYP2b6 was Bupropion (40 uM) (Sigma) and the selective inhibitor Ticlopidine (10 uM) (Sigma) was for parallel detection as positive control, and they were incubated for 20 minutes. (3) The probe substrate of CYP2C8 was Amodiaquine (1 uM) (Sigma), and the selective inhibitor Montelukast (10 uM) (Sigma) was for parallel detection as positive control, and they were incubated for 20 minutes. (4) The probe substrate for CYP2C9 was Diclofenac (2.5 uM) (Sigma), and the selective inhibitor Sulphaphenazole (10 uM) (Sigma) was for parallel detection as positive control, and they were incubated for 20 minutes. (5) The probe substrate for CYP2C19 was Mephenytoin (40 uM) (Sigma), and the selective inhibitor Ticlopidine (10 uM) (Sigma) was for parallel detection as positive control, and they were incubated for 20 minutes. (6) The probe substrate for CYP2D6 was Dextromethorphan (5 uM) (Sigma), and the selective inhibitor Quinidine (10 uM) (Sigma) was for parallel detection as positive control, and they were incubated for 20 minutes. (7) The probe substrates for CYP3A4-T and CYP3A4-M were Testosterone (5 uM) (Sigma) and Midazolam (5 uM) (Sigma), respectively, and the selective inhibitor was Ketoconazole (1 uM) (Sigma), they were detected in parallel as positive control, and incubated for 5 minutes. The reaction system was quenched by adding methanol containing the corresponding internal standard. The internal standard compound was Tolbutamide (Sigma). The concentration of the corresponding metabolites was determined by LC/MS/MS. For the data analysis, the decrease in peak area of the metabolite of the sample after addition of compound 77 relative to the peak area of the metabolite of the solvent control sample was used to calculate the IC50 (concentration of the test substance at 50% inhibition). The percentages of peak areas of metabolites of CYP1A2, CYP2B6, CYP2C8, CYP2C9, 15CYP2C19, CYP2D6, CYP3A4-T, and CYP3A4-M probe substrates after addition of different concentrations of compound 77 and selective inhibitors relative to the solvent control peak areas were shown in the Table 7.

[3] = biological target: T2, CYP2D6 (Homo sapiens, UniProt P10635); assay: P450 enzyme inhibition, CYP2D6; settings: human liver microsomes
T2 construct: human liver microsomes (BD Gentest) (0.5 mg/mL); tissue BD Gentest; host or cells: human liver microsomes
Description: as §1, §2

[4] = biological target: T3, CYP3A4-T (Homo sapiens, UniProt P08684); assay: P450 enzyme inhibition, CYP3A4-T (Testosterone); settings: human liver microsomes
T3 construct: human liver microsomes (BD Gentest) (0.5 mg/mL); tissue BD Gentest; host or cells: human liver microsomes
Description: as §1, §2

T3 sequence (P08684 whole entry): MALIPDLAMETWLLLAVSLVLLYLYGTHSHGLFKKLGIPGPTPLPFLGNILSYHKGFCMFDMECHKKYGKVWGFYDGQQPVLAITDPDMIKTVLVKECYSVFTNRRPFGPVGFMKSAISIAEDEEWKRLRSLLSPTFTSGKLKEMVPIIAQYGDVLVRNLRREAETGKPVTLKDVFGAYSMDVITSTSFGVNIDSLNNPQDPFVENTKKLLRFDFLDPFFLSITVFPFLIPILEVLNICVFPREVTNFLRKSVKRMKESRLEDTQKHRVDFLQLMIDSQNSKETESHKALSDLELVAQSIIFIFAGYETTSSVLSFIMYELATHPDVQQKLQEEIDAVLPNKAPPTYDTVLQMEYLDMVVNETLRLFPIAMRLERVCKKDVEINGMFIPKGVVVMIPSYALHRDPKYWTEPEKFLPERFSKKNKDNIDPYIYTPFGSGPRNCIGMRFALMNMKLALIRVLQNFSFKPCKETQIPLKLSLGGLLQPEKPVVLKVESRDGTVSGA
T2 sequence (P10635 whole entry): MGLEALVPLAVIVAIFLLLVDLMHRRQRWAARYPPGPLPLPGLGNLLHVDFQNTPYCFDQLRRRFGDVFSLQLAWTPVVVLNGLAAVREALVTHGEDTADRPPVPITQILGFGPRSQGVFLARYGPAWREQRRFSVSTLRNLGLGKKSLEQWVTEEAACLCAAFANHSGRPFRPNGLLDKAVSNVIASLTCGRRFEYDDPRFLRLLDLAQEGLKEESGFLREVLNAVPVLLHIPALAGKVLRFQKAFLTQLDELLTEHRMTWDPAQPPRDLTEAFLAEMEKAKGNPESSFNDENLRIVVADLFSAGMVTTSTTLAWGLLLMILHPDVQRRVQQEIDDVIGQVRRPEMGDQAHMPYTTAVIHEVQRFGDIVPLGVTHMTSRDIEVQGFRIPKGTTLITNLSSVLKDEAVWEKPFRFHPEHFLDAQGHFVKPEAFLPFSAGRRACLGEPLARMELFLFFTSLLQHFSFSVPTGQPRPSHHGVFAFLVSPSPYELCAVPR

Compound: COCCOc1ccc2c(c1)ncn2-c1ccc(NC(=O)Nc2cc(C(C)(C)C)n[nH]2)cc1 [Compound 77, 1-(5-tert-butyl-2H-pyrazol-3-yl)-3-{4-[5-(2-methoxyl-ethoxyl)-benzimidazol-1-yl]-phenyl}-urea]
- Mean Binding Rate ([1]; Rats, concentration 2 uM): 99.54%
- Binding Rate ([1]; Rats, concentration 2 uM, single replicates): 99.46% and 99.58% and 99.60%
- binding rate to the rat plasma protein ([1]; dialysis, 4 h, 37° C., test substance 2 uM, positive control 1 uM): 99.54%
- CYP1A2 Remaining % ([2]; Concentration 0.25 uM): 95.7%
- CYP1A2 Remaining % ([2]; Concentration 0.5 uM): 99.8%
- CYP1A2 Remaining % ([2]; Concentration 5 uM): 94.1%
- CYP1A2 Remaining % ([2]; Concentration 10 uM): 92.1%
- CYP1A2 Remaining % ([2]; Concentration 25 uM): 80.9%
- CYP1A2 Remaining % ([2]; Concentration 50 uM): 63.4%
- IC50 ([2]; read-out: half-inhibitory concentration (IC50) of CYP1A2): > 50 µM
- CYP2D6 Remaining % ([3]; Concentration 0.25 uM): 105.1%
- CYP2D6 Remaining % ([3]; Concentration 0.5 uM): 97.7%
- CYP2D6 Remaining % ([3]; Concentration 5 uM): 98.8%
- CYP2D6 Remaining % ([3]; Concentration 10 uM): 96.3%
- CYP2D6 Remaining % ([3]; Concentration 25 uM): 90.3%
- CYP2D6 Remaining % ([3]; Concentration 50 uM): 64.9%
- IC50 ([3]; read-out: half-inhibitory concentration (IC50) of CYP2D6): > 50 µM
- CYP3A4T Remaining % ([4]; Concentration 0.25 uM): 108.5%
- CYP3A4T Remaining % ([4]; Concentration 0.5 uM): 108.2%
- CYP3A4T Remaining % ([4]; Concentration 5 uM): 104.7%
- CYP3A4T Remaining % ([4]; Concentration 10 uM): 112.5%
- CYP3A4T Remaining % ([4]; Concentration 25 uM): 109.9%
- CYP3A4T Remaining % ([4]; Concentration 50 uM): 101.2%
- inhibitory effect on CYP3A4-T ([4]; Concentration 50 uM): no significant inhibitory effect
